The test system of assay [1] is Adult Bovine Aortic Endothelial (ABAE) cell line. Description: Antiproliferative activity in Adult Bovine Aortic Endothelial (ABAE) cell line, PROTOCOL 3 (4 days, cell count). In kind it is cell-based. On the procedure: The antiproliferative activity of the compounds of Formula I in an Adult Bovine Aortic Endothelial (ABAE) cell line and in Human Tumor cells lines is evaluated in three similar assays that measure growth inhibition. The assays are identified as follows:
PROTOCOLS 1, 2, and 3 are described in greater detail hereinbelow. In general, according to PROTOCOLS 1 and 2, the target ABAE and/or Human Tumor cells are exposed to the compounds of Formula I for 48 hours. PROTOCOL 3 exposes ABAE cells to the compounds for 4 days. A detailed description of the Protocols is as follows:
Antiproliferative Activity in Adult Bovine Aortic Endothelial (ABAE) Cell Line
ABAE cells are grown in DMEM media (Mediatech, Washington, D.C.) supplemented with 10% calf serum (Hyclone). ABAE cells are plated in 24-well dishes at 8,000 cells/well, followed by the addition of increasing concentrations of 7-halogen-9-[hydrogen or [(substituted glycyl)amido]]-6-demethyl-6-deoxytetracycline. After four days, the cells are detached and counted. […] The growth inhibition (I) as % of control is calculated as follows: [formula] wherein: Nc is the number of cells in untreated wells;
Nt is the number of cells in treated wells;
No is the number of plated cells.
IC50 of growth inhibition is determined from the sets of I values plotted by Kaleidograph software (Abelbeck Software).
Table 1 presents the results depicting the antiproliferative activity of the compounds of Formula I against an ABAE cell line, as evaluated by PROTOCOL 2 and PROTOCOL 3. The results are presented in terms of IC50 and are as follows.

In assay [2] the test system is angiogenesis. The following applies: Brem et al; in words; cited from earlier work.

“Also recorded” adds a separate entry of the source.

Usually IC50 stands for the point on the concentration scale where inhibition reaches its midpoint. Consider `CN(C)c1ccc(O)c2c1C[C@H]1C[C@H]3[C@H](N(C)C)C(O)=C(C(N)=O)C(=O)[C@@]3(O)C(O)=C1C2=O` [Minocycline, reference compound], for which, in assay [1] (Bos taurus, 96 h, ABAE cells, PROTOCOL 3, 4 days, read-out: IC50 PROTOCOL 3), the IC50 was not below 50 µg/mL. Also, the “activity upon incubation with cells” value in assay [1] (FIG. 1, 4 day assay (Protocol 3), in words) is on record as “losing its activity upon incubation with cells”. Moreover, the inhibition of angiogenesis result in assay [2] is “inhibits angiogenesis to an extent comparable to that of the combination therapy of heparin and cortisone; also recorded: useful as inhibitors of angiogenesis”.

These data come from patent publication US5574026A, “Methods for inhibiting angiogenesis proliferation of endothelial or tumor cells and tumor growth” (American Cyanamid Company, priority 1994, dated 1996).
